“Also recorded” adds a separate entry of the source.
Key:
VEGF-A signaling [1] = test: VEGF-A-induced AKT phosphorylation in Alk1 siRNA-silenced HUVECs; type: cell-based, human; settings: treated or not with Palbociclib
Excerpt: (§1) Next, we treated HUVECs with Alk1 siRNA to silence Alk1 and test the VEGF-A-induced response, with or without Palbociclib treatment, using pAKT activation as a readout.

[2] = tested on: vascular malformations in Alk1EC^iKO pups; test: Retinal vasculature analysis in Alk1EC^iKO pups (HHT type 2 model); type: in vivo, mouse
Excerpt: (§2) FIG. 5A illustrates a timeline used for tamoxifen (Tx) injection and CDK4/6i treatment of Alk1EC^iKO pups. FIG. 5B illustrates representative images showing retinal vasculature labelled with IB4 from control, Alk1EC^iKO, and Alk1EC^iKO+CDK4/6i-treated P5 animals. Bar graphs showing (FIG. 5C) quantification of AV shunt number per retina, (FIG. 5D) vascular density, and (FIG. 5E) vascular progression. (N=8 to 10 retinas/group, at least 4 mice). Data are mean±SEM, One-way ANOVA, *p≤0.05, **p≤0.01). FIG. 5F illustrates a timeline used for Tx injection and CDK4/6i treatment of Alk1EC^iKO pups for blue latex dye perfusion experiments. FIG. 5G illustrates blue latex dye vascular perfusion in brains from control, Alk1EC^iKO, and Alk1EC^iKO+CDK4/6i-treated P7 animals. […] FIG. 5H illustrates the quantification of left middle cerebral artery (MCA) and basilar artery (BA) in control, Alk1EC^iKO, and Alk1EC^iKO+CDK4/6i-treated animals. FIG. 5I illustrates the quantification of the number of latex filled veins in control, Alk1EC^iKO, and Alk1EC^iKO+CDK4/6i-treated animals. (N=4 to 6 mice/group. Data are mean±SEM, one-way ANOVA with Holm-Šidàk's multiple comparison test, *p≤0.05, **p≤0.01, ***p<0.001). Scale bar (G): 4 mm.
(§3) About 50% of HHT patients harbor mutations in the Acvrl1 gene^1, which encodes for the ALK1 receptor. To validate the clinical relevance of the use of Palbociclib for the treatment of HHT, we crossed Cdh5Cre^ERT2 mice with Alk1^flox/flox mice (6-8-week-old) to generate an endothelial-specific inducible deletion of Alk1 (referred to as Alk1EC^iKO), which is an established preclinical mouse model of human HHT type 2^12,25. Neonatal Alk1EC^iKO pups received a single i.p. injection of tamoxifen at P3 to induce Alk1 gene deletion and were then treated with Palbociclib via oral gavage at P4, and their retinal vasculature was analyzed at P5 (FIG. 5A). […] Due to the relatively short survival time post-tamoxifen induction in Alk1EC^iKO mice (approximately 48 hours), our study is limited to a single Palbociclib injection, which represents a technical challenge in exploring additional treatments. […] Single Cell RNA sequencing analysis of Palbociclib effects on endothelial arteriovenous identity in Alk1EC^iKO mice.
With bulk RNAseq analysis, we further investigated the effects of Palbociclib on these pathways in vivo on P7 retinal ECs from control pups or those treated with anti-BMP9/10, with or without CDK4/6i, as outlined in FIG. 2A. […] We also investigated the potential role of FLT1, a decoy receptor for VEFG-A, in the mechanism of action of Palbociclib, by injecting i.p. FLT1 blocking antibodies in Alk1EC^iKO mice simultaneously with CDK4/6i treatment (FIG. 8G).
All animal protocols and procedures were approved by the University of Virginia Animal Care and Use Committee and complied with all ethical regulations. Cdh5Cre^ERT21Rha^43 and Alk1^flox/flox were gifted from Drs. Ralf Adams and Paul Oh, respectively. R26p-Fucci2 (Fucci2) (Accession #CDB0203T)^44 and C57bl/6 mice were purchased from Riken and Jax, respectively. Cdh5Cre^ERT2 mice were crossed with Alk1^flox/flox mice (6-8-week-old) to generate Alk1EC^iKO pups. Cre activity in Alk1EC^iKO was induced in pups at P3 via a single intraperitoneal (i.p.) injection of Tamoxifen (Tx; Sigma T5648, […] of 4 mg/ml, resuspended in 10% ethanol and 90% corn oil). Alk1^flox/flox littermates were used as controls. Alk1EC^iKO mice were crossed with Fucci2 mice to generate Alk1EC^iKO-Fucci2 pups.

VEGF-A signaling [3] = test: Western Blot of VEGF-A-induced signaling in HUVECs; type: cell-based, human; settings: Palbociclib pre-treatment 24 h, 15-minute VEGF-A stimulation
Procedure: (§4) FIG. 8A illustrates Western Blot analysis of the phosphorylation of the indicated proteins in response to VEGF-A (1.5 nM) in control vs. CDK4/6i treated HUVECs. FIG. 8B illustrates Western Blot analysis of the phosphorylation of the indicated proteins in response to BMP9 (10 ng/ml) in control vs. CDK4/6i-treated HUVECs. FIG. 8C illustrates quantification of phosphorylation normalized to total protein levels. (N=5 independent experiments, Data are mean±SEM, Mann-Whitney U test: *p<0.05). […] FIG. 8E illustrates ENDOGLIN (green) and IB4 (white) staining of retinal flat-mounts from P5 Alk1^fl/fl, Alk1^fl/fl treated with CDK4/6i, Alk1EC^iKO, and Alk1EC^iKO treated with CDK4/6i animals (A: Artery; V: Vein). FIG. 8F illustrates quantification of fluorescence intensity of ENDOGLIN staining in (FIG. 8E) retinal venous vessels of the indicated animals (N=4 retinas per group. Data are mean±SEM, one-way ANOVA with Tukey's multiple comparison test: *p<0.05; ns p>0.05). FIG. 8G illustrates timeline used for Tx injection, and CDK4/6i and FLT1 blocking antibody treatment of Alk1EC^iKO pups. […]
as §1

BMP9 signaling = test: Western Blot of BMP9-induced signaling in HUVECs; type: cell-based, human; settings: Palbociclib pre-treatment
Procedure: as §4, §1

[4] = tested on: vascular malformations in Alk1EC^iKO pups; test: Blue latex dye vascular perfusion of brain, lungs and intestinal tract in Alk1EC^iKO pups; type: in vivo, mouse
Excerpt: as §2, §3

[5] = tested on: human umbilical vein endothelial cells; test: Proliferation of human umbilical vein endothelial cells assessed by EdU uptake; type: cell-based; settings: in vitro, dose response
Excerpt: FIG. 16 illustrates palbociclib, CVT-313 and ribociclib dose response effects on proliferation of human umbilical vein endothelial cells assessed by EdU uptake.
This example discusses that endothelial cell cycle dysregulation is a mechanism involved in the development of arterio-venous malformations in HHT, as well as other types of vascular malformations named above. Palbociclib, a FDA-approved cell cycle inhibitor, could be used to prevent arterio-venous and other malformations, including venous, capillary, lymphatic and cerebral cavernous malformations.

[6] = tamoxifen P3, Palbociclib P4, P5

## CC(=O)c1c(C)c2cnc(Nc3ccc(N4CCNCC4)cn3)nc2n(C2CCCC2)c1=O [Palbociclib, 6-acetyl-8-cyclopentyl-5-methyl-2-[5-(1-piperazinyl)pyridine-2-ylamino]pyrido[2,3-d]pyrimidin-7(8H)-one]
VEGF-A signaling [1]
  pAKT activation induced by VEGF-A in Alk1 silenced HUVECs: did not detect any differences
[2]; Alk1^iECKO mice, Palbociclib alone, vs untreated
  AV shunt number per retina (FLT1 experiment): developed less AV shunts
[2]; Alk1^iECKO mice, Palbociclib plus i.p. FLT1 blocking antibodies (1.6 mg/kg)
  AV shunt number per retina with FLT1 blocking antibodies: numerous AV shunts, comparable to untreated
[2]; [6]
  vascular density at the front of the retinal vascular plexi: prevented the formation of hyperdense and disorganized vascular networks
  vascular progression: normalized vascular progression
[2]; tamoxifen P3, Palbociclib oral gavage P4, retina at P5, vs untreated Alk1EC^iKO
  number of AVMs (AV shunts) per retina: significantly lower number of AVMs; also recorded: prevented the development of arterio-venous malformations
VEGF-A signaling [3]
  pAKT activation in response to VEGF-A: significantly decreased
  pERK1/2 activation in response to VEGF-A: significantly decreased
BMP9 signaling
  SMAD1/5/8 phosphorylation in response to BMP9: enhanced SMAD1/5/8 phosphorylation
[4]; P7, gastrointestinal tract
  veins filled with blue latex (arteriovenous shunts) in the intestinal tract: absent
[4]; brain, single dose of Palbociclib at P4
  diameter of the basilar and middle cerebral arteries: trend toward normalization
[4]; brain, vs untreated Alk1EC^iKO
  number of latex-filled veins in brain: significantly reduced
[4]; lungs
  latex blue dye extravasation across the intrapulmonary bed: dye extravasation was reduced
[5]
  EC proliferation assessed by EdU uptake: inhibit EC proliferation

Source: patent US20240285631A1, “METHODS OF TREATING VASCULAR MALFORMATIONS” (priority 2023, published 2024)
